For experiment [1], the system named is Ovarian TICs, 2393A ovarian. The experiment in a line: Ovarian tumor-initiating cell growth inhibition (Alamar Blue). It is filed as cell-based. The following applies: 144 h, 6 days, read-out: GI50 range 2393A ovarian.
From the text: (§1) Materials and Methods: Non-tissue or tissure cultured treated T-75 flask and 96-well plates were purchased from VWR. Vitamin B-27 supplement, MEM NEAA (minimum essential medium non essential amino acids), sodium pyruvate, L-glutamine, N2 supplement, penicillin-streptomycin and fungizone/amphotericin B were obtained from Invitrogen. Lipid mixture, heparin and EGF were purchased from Sigma; bFGF from BD Biosciences. Colon tumor initiating cells (TICs) were routinely maintained using non-tissue cultured treated T-75 flasks in DMEM:F12 medium containing 0.2XB-27 supplement, 4 ug/ml heparin, 1XMEM NEAA, 1× sodium pyruvate, 1 mM glutamine, 10 pg/ul bFGF, 20 pg/ul EGF, 1×N2 supplement, lipid mixture, penicillin-streptomycin and fungizone/amphotericin B. Ovarian TICs were routinely maintained using tissue cultured treated T-75 flasks in DMEM:F12 medium containing 1XB-27 supplement, 4 ug/ml heparin, 20 pg/ul bFGF, 20 pg/ul EGF and penicillin-streptomycin.
(§2) Compounds described herein were dissolved in DMSO and further diluted in cell culture medium for GI50 determination. Colon TICs were trypsinized and seeded into non-tissue cultured treated 96-well plates with 4,000 cells/well. After 24 h, compound was added into the cell culture at different concentrations, and the final concentration of DMSO was adjusted to 0.1%. Cells were then cultured at 37° C. for 9 days. Ovarian TICs were trypsinized and seeded into tissue cultured treated 96-well plates with 1,000 cells/well. After 24 h, compound was added into the cell culture at different concentrations, and the final concentration of DMSO was adjusted to 0.1%. Cells were then cultured at 37° C. for 6 days. Cell viability was assessed by Alamar Blue assay: 10 ul of Alamar Blue was added into each well. After 4 hours incubation at 37° C., fluorescence was recorded at excitation 544 and emission 590. GI50 (Growth inhibition) was calculated using GraphPad Prism 4.0 software.
Experiment [2] deals with PA-1 ovarian cancer cells. Put plainly: Cell growth inhibition, Sulforhodamine B assay, PA-1. The format is cell-based. The conditions noted are these: 120 h, 5 days culture, SRB assay, read-out: Cell Line GI50 Range PA-1.
Method: (§3) Breast cancer cells (MDA-MB-231, MDA-MB-468), colon cancer cells (HCT116, HT29) and ovarian cancer cells (PA-1, OVCAR-3) were seeded (1000 to 4000 in 80 μl per well depending on the cell growth rate) into 96 well plates 24 hours before compound overlay. Compounds were prepared as 10 mM stock solutions in 100% DMSO which were diluted with DMEM (Dulbecco's Modified Eagle's Medium) cell growth Medium (Invitrogen, Burlington, ON, Canada) containing 10% FBS (Fetal Bovine Serum) to concentrations ranging from 50 nM to 250 μM. Aliquots (20 μl) from each concentration were overlaid to 80 μl of the pre-seeded cells in the 96 well plates to make final concentrations of 10 nM to 50 μM. The cells were cultured for 5 days before the Sulforhodamine B assay (SRB) was performed to determine the compound's cell growth inhibition activity.
(§4) Sulforhodamine B (purchased from Sigma, Oakville, ON, Canada) is a water-soluble dye that binds to the basic amino acids of the cellular proteins. Thus, colorimetric measurement of the bound dye provides an estimate of the total protein mass that is related to the cell number. the cells are fixed in situ by gently aspirating off the culture media and adding 50 μl ice cold 10% Trichloroacetic Acid (TCA) per well and incubate at 4° C. for 30-60 min, The plates are washed with water five times and allowed to air dry for 5 min. Addition of 50 μl 0.4% (w/v) SRB solution in 1% (v/v) acetic acid to each well and incubatation for 30 min at RT completes the staining reaction. Following staining, plates are washed four times with 1% acetic acid to remove unbound dye and then allowed to air dry for 5 min. The stain is solubilized with 100 μl of 10 mM Tris pH 10.5 per well. Absorbance is read at 570 nm.
(§5) The percentage (%) of relative growth inhibition was calculated by comparing to DMSO treated only cells (100%). […] The GI50 was calculated using GraphPad PRISM software (GraphPad Software, Inc., San Diego, Calif., USA).
For the next experiment, the target named is T1, human PLK4 (Homo sapiens, UniProt O00444).
T1 construct: amino terminal GST fusion of residues 1-391 of human PLK4; made in house; host or cells: E. coli
T1 sequence (O00444 1-391): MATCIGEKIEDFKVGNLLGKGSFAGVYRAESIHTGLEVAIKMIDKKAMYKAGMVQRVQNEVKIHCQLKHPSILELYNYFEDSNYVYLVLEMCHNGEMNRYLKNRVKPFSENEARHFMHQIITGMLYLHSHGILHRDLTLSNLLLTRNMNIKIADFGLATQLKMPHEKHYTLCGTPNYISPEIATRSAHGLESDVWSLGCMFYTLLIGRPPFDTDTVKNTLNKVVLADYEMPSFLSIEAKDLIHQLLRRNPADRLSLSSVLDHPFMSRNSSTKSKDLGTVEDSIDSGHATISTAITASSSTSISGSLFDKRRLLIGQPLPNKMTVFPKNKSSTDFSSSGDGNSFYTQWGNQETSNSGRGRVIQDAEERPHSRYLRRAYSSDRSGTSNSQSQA
The experiment in a line: PLK4 inhibition assay (indirect ELISA). The format is biochemical. The following applies: GST-PLK4 4 nM, 15 μM ATP; read-out: IC50 Ranges PLK4. In short, it runs like this: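 Compounds were tested either at a single 10 μM dose or across 10-point titrations (typically 0.5 to 0.001 μM), preincubated 15 min with 4 nM GST-PLK4 (human 1-391, dephosphorylated) before 15 μM ATP was added. MBP substrate phosphorylation over 30 min, pH 7.5 HEPES/MgCl2 buffer, read by HRP/TMB ELISA (450 nm). % inhibition vs. high-activity control; IC50 by logistic fit.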

Experiment [3] deals with MDA-MB-468 breast cancer cells. Put plainly: Cell growth inhibition, Sulforhodamine B assay, MDA-MB-468. The following applies: Homo sapiens, 120 h, 5 days culture, SRB assay, read-out: Cell Line GI50 Range MDA-MB-468. The format is cell-based. A general note: The SRB assay estimates cell density from bound dye.
Method: as §3, §4, §5
The target of another experiment is T2, human TTK (Homo sapiens, UniProt P33981).
T2 construct: amino terminal GST fusion of full length human TTK; purchased Invitrogen
T2 sequence (P33981 1-857): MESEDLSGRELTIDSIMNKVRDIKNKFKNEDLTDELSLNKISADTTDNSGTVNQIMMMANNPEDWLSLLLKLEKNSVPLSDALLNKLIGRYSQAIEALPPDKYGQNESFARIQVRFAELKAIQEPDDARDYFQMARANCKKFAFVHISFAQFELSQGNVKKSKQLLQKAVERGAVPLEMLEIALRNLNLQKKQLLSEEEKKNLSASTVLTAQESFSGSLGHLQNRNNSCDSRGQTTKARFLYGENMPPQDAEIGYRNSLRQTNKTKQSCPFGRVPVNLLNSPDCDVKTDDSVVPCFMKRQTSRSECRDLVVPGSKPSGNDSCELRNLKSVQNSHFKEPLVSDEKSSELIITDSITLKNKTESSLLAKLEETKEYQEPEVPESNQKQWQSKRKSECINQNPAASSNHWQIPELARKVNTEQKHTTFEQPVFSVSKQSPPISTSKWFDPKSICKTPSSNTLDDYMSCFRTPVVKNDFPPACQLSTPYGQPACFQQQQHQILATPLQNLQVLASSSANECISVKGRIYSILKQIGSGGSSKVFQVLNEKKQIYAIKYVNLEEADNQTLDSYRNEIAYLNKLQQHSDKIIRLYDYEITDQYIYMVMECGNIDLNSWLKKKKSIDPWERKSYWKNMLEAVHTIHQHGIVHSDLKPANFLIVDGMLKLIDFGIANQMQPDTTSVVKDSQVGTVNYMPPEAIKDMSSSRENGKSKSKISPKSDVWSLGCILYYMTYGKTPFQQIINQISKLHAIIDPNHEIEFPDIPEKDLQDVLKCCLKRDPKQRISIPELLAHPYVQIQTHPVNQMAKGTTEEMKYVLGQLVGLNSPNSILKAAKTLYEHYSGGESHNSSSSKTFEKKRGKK
Put plainly: TTK inhibition assay (indirect ELISA). The conditions noted are these: GST-TTK 0.68 nM, 16 μM ATP; read-out: IC50 Ranges TTK. It is filed as biochemical. In general terms: In an ELISA, binding on a coated surface is turned into a signal by an enzyme label.

For another experiment, the target named is T3, Aurora B (Homo sapiens, UniProt Q96GD4).
T3 construct: purchased Invitrogen PV3970
Put plainly: Aurora B inhibition assay (Z-Lyte). It is filed as biochemical. The following applies: 28 nM Aurora B, 128 μM ATP; read-out: IC50 Ranges Aurora B. The protocol:
Aurora B inhibition was determined using the Z-Lyte assay kit from Invitrogen. The assay was performed using the recommended manufacturer's instructions with 128 μM ATP and 28 nM Aurora B (Invitrogen cat #PV3970). The % inhibition values were determined according to the manufacturer's directions and IC50 values were obtained using a non-linear 4 point logistic curve fit (XLfit4, IDBS)

The subject of experiment [4] is HCT116 colon cancer cells. Put plainly: Cell growth inhibition, Sulforhodamine B assay, HCT116. The format is cell-based. The following applies: Homo sapiens, HCT-116, 120 h, 5 days culture, SRB assay, read-out: Cell Line GI50 Range HCT116.
The test system of experiment [5] is Colon tumor initiating cells (TICs), 12 colon. The experiment in a line: Colon tumor-initiating cell growth inhibition (Alamar Blue). The format is cell-based. The following applies: 216 h, 9 days, read-out: GI50 range 12 colon. In general terms: The colour change of resazurin is a common sign of viable cells or microbes.
From the text: as §1, §2
For a further experiment, the system named is HT29 colon cancer cells. Put plainly: Cell growth inhibition, Sulforhodamine B assay, HT29. It is filed as cell-based. The following applies: Homo sapiens, HT-29, 120 h, 5 days culture, SRB assay, read-out: Cell Line GI50 Range HT29.
Experiment [6] concerns OVCAR-3 ovarian cancer cells. Put plainly: Cell growth inhibition, Sulforhodamine B assay, OVCAR-3. The format is cell-based. The following applies: Homo sapiens, 120 h, 5 days culture, SRB assay, read-out: Cell Line GI50 Range OVCAR-3.
Method: as §3, §4, §5
In experiment [7] the test system is MDA-MB-231 breast cancer cells. Put plainly: Cell growth inhibition, Sulforhodamine B assay, MDA-MB-231. It is filed as cell-based. The conditions noted are these: Homo sapiens, 120 h, 5 days culture, SRB assay, read-out: Cell Line GI50 Range MDA-MB-231.

By GI50 is commonly meant the concentration that inhibits growth by half. For orientation: pIC50 means −log10 of the IC50, conventionally taken in molar units.

pIC50: −log10 of the molar value.

T3 sequence (Q96GD4 whole entry): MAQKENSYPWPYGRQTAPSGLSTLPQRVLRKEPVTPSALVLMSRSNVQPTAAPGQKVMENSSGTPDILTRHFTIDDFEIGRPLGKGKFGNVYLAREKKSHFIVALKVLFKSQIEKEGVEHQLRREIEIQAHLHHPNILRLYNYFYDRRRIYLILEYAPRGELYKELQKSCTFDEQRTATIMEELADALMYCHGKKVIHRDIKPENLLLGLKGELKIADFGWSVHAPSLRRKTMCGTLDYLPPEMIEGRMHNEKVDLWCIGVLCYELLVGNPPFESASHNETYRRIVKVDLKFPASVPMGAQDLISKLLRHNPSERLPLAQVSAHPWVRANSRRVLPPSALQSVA

Regarding `O=C(NC(c1ccccc1)C1CC1)c1ccc2[nH]nc(-c3ccc(OC4CN(C5COC5)C4)cc3)c2c1` (centres unmarked) [Example A190, N-(cyclopropyl(phenyl)methyl)-3-(4-((1-(oxetan-3-yl)azetidin-3-yl)oxy)phenyl)-1H-indazole-5-carboxamide], the GI50 in experiment [1], in experiment [2], in experiment [3], in experiment [4] and in experiment [5] was at most 5 µM each time. Also, the negative logarithm of the IC50 (pIC50) at human PLK4, at human TTK and on Aurora B was at least 5.30 throughout.
Consider `CN1CCC(Oc2ccc(-c3n[nH]c4ccc(C(=O)N[C@H](c5sccc5Cl)C5CC5)cc34)cc2)CC1` [Example A167, (S)—N-((3-chlorothiophen-2-yl)(cyclopropyl)methyl)-3-(4-((1-methylpiperidin-4-yl)oxy)phenyl)-1H-indazole-5-carboxamide], for which the GI50 (in [1]; in experiment [2]; in experiment [3]; with HT29 colon cancer cells; in [4]; in experiment [5]) was at most 5 µM each time. Also, the pIC50 on human PLK4, at human TTK and at Aurora B was at least 5.30 in each case.
As for `CC(C)(O)C1CCN(c2ccc(-c3n[nH]c4ccc(C(=O)NC(c5ccccn5)C5CC5)cc34)cc2)CC1` (centres unmarked) [Example A180, N-(cyclopropyl(pyridin-2-yl)methyl)-3-(4-(4-(2-hydroxypropan-2-yl)piperidin-1-yl)phenyl)-1H-indazole-5-carboxamide], the GI50 in experiment [1], in [2], in experiment [3], in [4] and in [5] was at most 5 µM in each case. Besides, the pIC50 on human PLK4, at human TTK and on Aurora B was at least 5.30 throughout.
On to `O=C(Nc1ccc2[nH]nc(-c3ccc(OC4CCOCC4)cc3)c2c1)C(c1ccsc1)N1CCCC1` (centres unmarked) [Example A29, 2-(pyrrolidin-1-yl)-N-(3-(4-((tetrahydro-2H-pyran-4-yl)oxy)phenyl)-1H-indazol-5-yl)-2-(thiophen-3-yl)acetamide], for which the GI50 in [6] is 5 to 20 µM; in experiment [1], at most 5 µM; in experiment [7], 5 to 20 µM; in experiment [3], at most 5 µM; in the experiment on HT29 colon cancer cells it was at most 5 µM; in experiment [4] it was at most 5 µM. For the same compound, in experiment [5], the concentration for 50% growth inhibition (GI50) was at most 5 µM. In addition, the pIC50 at human PLK4, on human TTK and on Aurora B was at least 5.30 each time.
On to `CO[C@@H](C(=O)Nc1ccc2[nH]nc(-c3ccc(OC4CCN(C)CC4)cc3)c2c1)c1ccccc1` [Example A27, (R)-2-methoxy-N-(3-(4-((1-methylpiperidin-4-yl)oxy)phenyl)-1H-indazol-5-yl)-2-phenylacetamide], for which the 50% growth inhibitory concentration (GI50) is 5 to 20 µM in [6]; at most 5 µM in experiment [1]; 5 to 20 µM in [7]; at most 5 µM in [3]; at most 5 µM in the experiment with HT29 colon cancer cells; at most 5 µM in [4]. The GI50 in experiment [5] is at most 5 µM. Besides, the pIC50 at human PLK4, on human TTK and at Aurora B was at least 5.30 each time.
`CN1CCC(Nc2ccc(-c3n[nH]c4ccc(NC(=O)C(c5ccsc5)N5CCCC5)cc34)cc2)CC1` (centres unmarked) [Example A25]: the concentration for 50% growth inhibition (GI50) (in experiment [6]; in [1]; in [7]; in experiment [3]; in the experiment on HT29 colon cancer cells; in experiment [4]) was at most 5 µM throughout. The GI50 in experiment [5] is at most 5 µM. The pIC50 on human PLK4, on human TTK and at Aurora B was at least 5.30 throughout.
Consider `O=CN1CCC(Oc2ccc(-c3n[nH]c4ccc(C(=O)NC(c5ccccc5F)C5CC5)cc34)cc2)CC1` (centres unmarked) [Example A182, N-(cyclopropyl(2-fluorophenyl)methyl)-3-(4-((1-formylpiperidin-4-yl)oxy)phenyl)-1H-indazole-5-carboxamide], for which the GI50 in experiment [1], in experiment [2], in experiment [3], in experiment [4] and in experiment [5] was at most 5 µM throughout. For the same compound, the negative-log IC50 (pIC50) at human PLK4, at human TTK and on Aurora B was at least 5.30 each time.
With `O=C(Nc1ccc2[nH]nc(-c3ccc(OC4CCN(C5COC5)CC4)cc3)c2c1)C(c1ccccc1)C1CC1` (centres unmarked) [Example A185, 2-cyclopropyl-N-(3-(4-((1-(oxetan-3-yl)piperidin-4-yl)oxy)phenyl)-1H-indazol-5-yl)-2-phenylacetamide], the GI50 in experiment [1], in experiment [2], in experiment [3], in experiment [4] and in [5] was at most 5 µM each time. Also, the pIC50 on human PLK4, on human TTK and at Aurora B was at least 5.30 each time.
As for `O=C(Nc1ccc2[nH]nc(-c3ccc(N4CCOCC4)cc3)c2c1)C(c1ccsc1)N1CCCC1` (centres unmarked) [Example A4, N-(3-(4-morpholinophenyl)-1H-indazol-5-yl)-2-(pyrrolidin-1-yl)-2-(thiophen-3-yl)acetamide], the 50% growth inhibitory concentration (GI50) in experiment [6] was 5 to 20 µM; in experiment [1], at most 5 µM; in [7], at most 5 µM; in experiment [3], at most 5 µM; with HT29 colon cancer cells it was at most 5 µM; in experiment [4], at most 5 µM. In addition, the concentration for 50% growth inhibition (GI50) in experiment [5] is at most 5 µM. Moreover, the negative-log IC50 (pIC50) at human PLK4, on human TTK and on Aurora B was at least 5.30 throughout.
As for `O=CN1CCC(Oc2ccc(-c3n[nH]c4ccc(C(=O)NC(c5ccsc5)C5CC5)cc34)cc2)CC1` (centres unmarked) [Example A186, N-(cyclopropyl(thiophen-3-methyl-3-yl)methyl)-3-(4-((1-formylpiperidin-4-yl)oxy)phen)-1H-indazole-5-carboxamide], the GI50 in experiment [1], in experiment [2], in experiment [3], in experiment [4] and in experiment [5] was at most 5 µM each time. For the same compound, the negative-log IC50 (pIC50) on human PLK4, at human TTK and at Aurora B was at least 5.30 each time.

These data come from US20140051679A1, “KINASE INHIBITORS AND METHOD OF TREATING CANCER WITH SAME” (UNIVERISTY HEALTH NETWORKS, priority 2011, published 2014).
